Test results published in US20080318938A1, “METHODS FOR TREATING ABERRANT CELL PROLIFERATION DISORDERS” (priority 2007, published 2008).

How the values were obtained:
[1] = TA4-1A in plasma, brain and tumor of HCT116 tumor-bearing mice; assay type: in vivo; details: for Share of the therapeutic agent in brain / Share of the therapeutic agent in plasma / Share of the therapeutic agent in tumor: mice, 12.5 mg/kg IV daily 14 days, wash-out, last dose day 19
Source text: In vivo experiment protocols were approved by the Animal Use and Care Committee. Female NCr nu/nu mice were purchased from Taconic Farms and group housed in a ventilated rack system on a 12/12 light cycle. All housing materials and water were autoclaved prior to use. The mice were fed ad libitum with gamma-irradiated laboratory chow and acidified water. Animals were handled under laminar-flow hoods. Animals were inoculated subcutaneously in the right flank with 5×10̂6 HCT116 cells. Tumors were monitored twice weekly and then daily as they approached the appropriate size for study. On Day 1 of the study, the animals were randomized into n=3 treatment groups with group average tumor sizes of 109 mm^3.
(§1) where w=width and 1=length in mm of the tumor. Tumor weight was estimated with the assumption that 1 mg is equivalent to 1 mm^3 of tumor volume. Mice were daily dosed with compound TA4-1A at 12.5 mg/kg (IV) during 14 days. A wash-out period ensued for four days with no dosing, and the last dose was administered after the wash-out period (day 19) at 12.5 mg/kg. At one, two and twenty-four hour time points plasma, brain and tumor samples were collected from terminal mice and frozen. It was determined that the tumor contained 35%, plasma contained 64% and brain contained 1% of the therapeutic agent after the one hour time point, and the tumor contained 74%, plasma contained 24% and brain contained 2% of the therapeutic agent after the two hour time point. At the 24 hour time point, tumor contained 17%, plasma contained 49% and brain contained 34% of the therapeutic agent. After an eight hour exposure to the agent in female and male rats, approximately 3-4% of the agent was available in the brain as compared to the amount in plasma. […] Examples of cell lines and particular brain cancers are described herein.

[2] = TA4-1A in brain compared to plasma in rats; assay type: in vivo; details: both sexes, rat, female and male rats, eight hour exposure, read-out: Agent available in the brain as compared to the amount in plasma
Description: as §1

CC(=O)N1CCN(c2nc3c(cc2F)c(=O)c(C(=O)NCCN2CCCC2)c2n(C)c4ccccc4n32)CC1 [TA4-1A]
Blood-brain barrier permeation ([1]; mice and rats, conclusion from brain levels): can permeate the blood-brain barrier to some extent
Share of the therapeutic agent in brain ([1]; 24 hour): 34%
Share of the therapeutic agent in plasma ([1]; 24 hour): 49%
Share of the therapeutic agent in tumor ([1]; 24 hour): 17%
Share of the therapeutic agent in brain ([1]; one hour): 1%
Share of the therapeutic agent in plasma ([1]; one hour): 64%
Share of the therapeutic agent in tumor ([1]; one hour): 35%
Share of the therapeutic agent in brain ([1]; two hour): 2%
Share of the therapeutic agent in plasma ([1]; two hour): 24%
Share of the therapeutic agent in tumor ([1]; two hour): 74%
Kp at 8 h [2]: 0.03 to 0.04
